Measured values taken from publication PMC7663799, “Endocytosis and Trafficking of Heparan Sulfate Proteoglycans in Triple-Negative Breast Cancer Cells Unraveled with a Polycationic Peptide” (International Journal of Molecular Sciences, 2020).

Key:
[1] = test system: NT4 internalization in MDA-MB-231 cells; test: Inhibition of NT4 internalization by pharmacological agents, confocal microscopy; assay type: cell-based, human; conditions: for reduction of NT4 internalization: ±13%
Method: (§1) MDA-MB-231 cells were plated at a density of 5 × 10^4 per well in 24-well plates with glass cover slides and maintained overnight at 37 °C, 5% CO2.
Cells were pretreated for 15 min with 1–10 μg/mL Chlorpromazine (Merck, Darmstadt, Germany), 25 μg/mL Nystatin (Merck), 80 μM Dynasore (Merck) and 50 µM Amiloride (Merck) at 37 °C and then incubated with 2 μM NT4-biotin and 0.5 μg/mL Streptavidin-Atto 488 in PBS-1% BSA at room temperature for 15 min. To study macropinocytosis in the presence of Amiloride, 5 mg/mL Rhodamine B isothiocyanate–Dextran in PBS-1% BSA (Merck) was incubated at room temperature for 15 min. Cells were then washed and grown in medium, with and without pharmacological agents, for 15 and 30 min at 37 °C to allow peptide internalization. After internalization, they were fixed with PBS-4% PFA and plasma membranes were stained with 2.5 μg/mL wheat germ agglutinin, Alexa Fluor 647 (Thermo Fisher Scientific) conjugate in PBS-1% BSA, incubated for 10 min at room temperature. Nuclei were stained with DAPI (0.5 μg/mL in PBS-1% BSA). Each step was followed by three washes in PBS.
Peptide binding was analyzed by confocal laser microscope (Leica TCS SP5) with 501 λ ex and 523 λ em for Atto 488, 633 λ ex and 660–680 λ em for Atto 647 and 364 λ ex and 458 λ em for DAPI. Images were single Z-planes for all channels used. All images were processed and quantified using the Leica Application Suite X program (LAS X) of the confocal laser microscope (Leica TCS SP5). The experiment was repeated at least three times and at least three different fields were acquired for each sample.

CDC42-GTP = test: G-LISA activation assay, CDC42; assay type: cell-based, human; conditions: starved MDA-MB-231
Method: Cells were seeded in six-well plates (5 × 10^5 cells per well) and maintained for 12 h in a CO2 incubator. To measure Rac-1, RhoA and CDC42 GTPases, they were treated with 10 µM NT4 in DMEM-0.1% BSA, serum-free, for 12 h at 37 °C and then incubated with 0.1 μg/mL hEGF (Cell Signaling) for 2 min for Rac-1 and CDC42 GTPases and for 5 min for RhoA GTPase. Cells were washed with cold PBS, lysed and processed for colorimetric G-LISA activation assays (Cytoskeleton, Denver, CO, USA), according to the manufacturer’s instructions. The activated forms of the G proteins were detected by incubation with specific primary antibody, followed by a secondary antibody conjugated with HRP and a detection reagent. The signal was read by measuring absorbance at 490 nm using a microplate reader. […]

Rac1-GTP = test: G-LISA activation assay, Rac1; assay type: cell-based, human; conditions: starved MDA-MB-231
Method: (§2) Cells were seeded in six-well plates (5 × 10^5 cells per well) and maintained for 12 h in a CO2 incubator. To measure Rac-1, RhoA and CDC42 GTPases, they were treated with 10 µM NT4 in DMEM-0.1% BSA, serum-free, for 12 h at 37 °C and then incubated with 0.1 μg/mL hEGF (Cell Signaling) for 2 min for Rac-1 and CDC42 GTPases and for 5 min for RhoA GTPase. Cells were washed with cold PBS, lysed and processed for colorimetric G-LISA activation assays (Cytoskeleton, Denver, CO, USA), according to the manufacturer’s instructions. The activated forms of the G proteins were detected by incubation with specific primary antibody, followed by a secondary antibody conjugated with HRP and a detection reagent. The signal was read by measuring absorbance at 490 nm using a microplate reader. The experiment was repeated three times.

Rac-1-GTP = test: Rac1 pulldown assay (GST-PAK1-PBD beads, immunoblot); assay type: cell-based, human; conditions: MDA-MB-231, no EGF
Method: Rac1 activity was measured by pulldown assay using the active Rac1 detection kit (Cell Signaling), according to the manufacturer’s instructions. Cells were seeded in six-well plates (5 × 10^5 cells per well) and maintained for 24 h in a CO2 incubator. Cells were washed with cold PBS and lysed. Protein lysates were centrifuged and the supernatant was collected in new tubes containing beads pre-coupled with GST–PAK1-PBD and incubated under rotation at 4 °C for 60 min. The beads were washed and the proteins bound to them were separated by SDS-PAGE. The amounts of active Rac1 were determined by immunoblot analysis. Signals were detected using a LAS4010 imaging system (GE Healthcare, Chicago, IL, USA).

heparan sulfate chains = conditions: surface plasmon resonance; cited from earlier work
MDA-MB-231 cells [2] = test: 2D migration, in vitro wound-healing (scratch) assay; assay type: cell-based, human; conditions: 10 μM NT4 in complete medium, p = 0.0428, n = 2
Method: Cell migration was measured using an in vitro wound-healing assay. MDA-MB231 cells (5.25 × 10^4) were seeded on each side of a culture insert for live cell analysis (Ibidi, Munich, Germany). Inserts were placed in the wells of a 24-well plate and the cells were incubated at 37 °C and 5% CO2 to confluence. The inserts were removed with sterile tweezers to create a cell-free area of approximately 500 μm. The cells were treated with 10 μM NT4 peptide in complete medium and allowed to migrate in an appropriate incubator of a DMi8 (Leica Microsystems, Wetzlar, Germany) microscope. The same instrument was used to take pictures at time zero and every 5 min for 11 h.
The percentage of void area with respect to time 0 was determined using Tscratch. The time-lapse image stacks were also analyzed using ImageJ and the plug-in Chemotaxis and Migration Tool.

MDA-MB231 cells = conditions: flow cytometry; cited from earlier work
Method: The peptide bound to the plasma membrane (Figure 1A), most was internalized in cells within 15–30 min (Figure 1B,C) and it was completely endocytosed within 1 h (Figure 1D). The antibody anti-HS clone 10E4 [20], the epitope of which includes an N-sulfated glucosamine r ...

proteolytic enzymes = conditions: imparted by branched structure; cited from earlier work
Description: NT4 is a tetrabranched peptide obtained by synthesizing four copies of the 13-amino-acid sequence on a branched core of lysines. […] The peptide has already been tested in animal models of cancer and has shown good specificity for tumor versus healthy cells. It also countered the invasive ...

RhoA-GTP = test: G-LISA activation assay, RhoA; assay type: cell-based, human; conditions: starved MDA-MB-231, n = 3
Method: as §2

MDA-MB-231 cells [3] = test: NT4 binding to plasma membrane and internalization, confocal immunofluorescence; assay type: cell-based, human; conditions: confocal microscopy
Method: as §1
Cells were incubated with 2 μM NT4-biotin and 0.5 μg/mL Streptavidin-Atto 488 in PBS-1% BSA at room temperature for 15 min, then washed and grown in medium for 5, 15 and 30 min at 37 °C to allow peptide internalization. They were then fixed with PBS-4% paraformaldehyde (PFA) and saturated with PBS-5% BSA 0.3%-Triton X-100. HS was stained using 1 µg/mL anti-heparan sulfate (10E4 epitope) (Amsbio, Abingdon, UK) in PBS-1% BSA for 1 h, followed by incubation with 1 μg/mL anti-mouse IgG Rhodamine Red-X (Thermo Fisher Scientific, Waltham, MA, USA). Nuclei were stained with DAPI (0.5 μg/mL in PBS-1% BSA). Each step was followed by three washes in PBS. Peptide binding was analyzed by confocal laser microscope (Leica TCS SP5) with 380 λ ex and 450–470 λ em, 501 λ ex and 523 λ em and 633 λ ex and 660–680 λ em for DAPI, Atto 488 and Atto 647, respectively. The experiment was repeated three times and three different fields were acquired for each sample.

With `N=C(N)NC(=O)c1nc(Cl)c(N)nc1N` [Amiloride] the “impairment of NT4 internalization” value ([1]; 50 µM amiloride pre-treatment, p = 0.0461) was “more than 50%”.

With (pyELYENKPRRPYIL)4K2K-beta-Ala [NT4] the “effect on CDC42 activation without EGF” value (CDC42-GTP; 10 µM NT4 12 h, no EGF) was “no effect on CDC42 activation”, the “effect on EGF-induced CDC42 activation” value (CDC42-GTP; 10 µM NT4 12 h, then 0.1 μg/mL hEGF 2 min, n = 2) was “mitigates activation of CDC42 induced by the growth factor” and the “effect on EGF-induced Rac1 activation” value (Rac1-GTP; 10 µM NT4 12 h, then 0.1 μg/mL hEGF 2 min) was “not significantly changed”. For the same compound, the “effect on basal levels of Rac-1-GTP” value (Rac-1-GTP) was “not affected”, the “binding to heparan sulfate chains” value (heparan sulfate chains) was “bind heparan sulfate chains” and the “effect on MDA-MB-231 migration (gap closure in 8 h)” value (MDA-MB-231 cells [2]) was “slowed MDA-MB-231 migration”. The “binding to MDA-MB231 cells” value (MDA-MB231 cells) was “bind to MDA-MB231 cells”, the “stability against proteolytic enzymes” value (proteolytic enzymes) was “stability against proteolytic enzymes” and the “reduction of RhoA (RhoA-GTP)” value (RhoA-GTP; 10 µM NT4 12 h alone, without EGF) was 20%. The “reduction of RhoA (RhoA-GTP)” value (RhoA-GTP; EGF with NT4: 10 µM NT4 12 h, then 0.1 μg/mL hEGF 5 min) was 21%, the “time within which most of the peptide was internalized in cells” value (MDA-MB-231 cells [3]; 2 μM NT4-biotin + 0.5 μg/mL Streptavidin-Atto 488, 15 min RT in PBS-1% BSA, then medium at 37 °C) was 15 to 30 min and the “time within which the peptide was completely endocytosed” value (MDA-MB-231 cells [3]; 2 μM NT4-biotin + Streptavidin-Atto 488, 37 °C) was no more than 1 h.

For `C[C@@H]1[C@H](O)[C@@H](C)/C=C/C=C/CC/C=C/C=C/C=C/C=C/C(O[C@H]2O[C@H](C)[C@@H](O)[C@H](N)[C@@H]2O)CC2O[C@](O)(CC(O)C(O)CCC(O)CC(O)CC(O)CC(=O)O[C@H]1C)CC(O)C2C(=O)O` (some centres unmarked) [nystatin], the “inhibition of NT4 endocytosis” value ([1]; 25 μg/mL nystatin, 15 min, 2 μM NT4-biotin, n = 9, p = 0.0345) was 60%.

In the case of `CN(C)CCCN1c2ccccc2Sc2ccc(Cl)cc21` [chlorpromazine], the “reduction of NT4 internalization” value ([1]; chlorpromazine 1 μg/mL, n = 3, p = 0.0279) is reported as 27% and the “reduction of NT4 internalization” value ([1]; chlorpromazine 10 μg/mL, n = 4, p = 0.0327) is reported as 57%.

With “EGF: growth factor (hEGF, Cell Signaling) used to stimulate Rho GTPases” the “effect on CDC42-GTP” value (CDC42-GTP; 0.1 μg/mL hEGF 2 min) was “increased”, the “effect on Rac1-GTP” value (Rac1-GTP; 0.1 μg/mL hEGF 2 min) was “transiently activated” and the “reduction of RhoA (RhoA-GTP)” value (RhoA-GTP; 0.1 μg/mL hEGF 5 min alone) was 26%.

For `O=C(N/N=C/c1ccc(O)c(O)c1)c1cc2ccccc2cc1O` [dynasore], the “effect on NT4 internalization” value ([1]; 80 μM dynasore, n = 6, p = 0.0043) was “no longer internalized NT4”.
